Laboratory results from patent US10626368B2, “Method for inducing cerebral cortex neurons” (KYOTO UNIVERSITY, priority 2015, dated 2020).

System: iPS cells (836B1)
Assay: Immunostaining for CoupTF1 and Ctip2 on day 46, suspension culture with various WNT inhibitors (Example 4)
Format: cell-based, human
Conditions: 50 nM C59, 100 nM LGK-974, 1 μM ICG-001, day 46; C59 and LGK-974 compared with each other
Protocol: On the day before induction of differentiation, in order to separate the iPS cells (836B1), which had been cultured in a culture medium to which 10 μM Y-27632 had been added, from the SNL feeder cells, the SNL cells were removed with CTK and the remaining cells were then dissociated using Accumax. The cells were transferred on a 96-well plate (Lipidure-coat 96-well plate) in an amount of 9×10^3 cells per well. Thereafter, the cells were subjected to a suspension culture in DMEM/F12 comprising 50 μM Y-27632, 10 μM SB43152, 10 ng/ml bFGF, various types of Wnt inhibitors (50 nM C59, 100 nM LGK-974, or 1 μM ICG-001 (Cellagen Technology)), 100 nM LDN193189, 10% KSR, 0.1 mM MEM non-essential amino acid, 0.1 mM 2-mercaptoethanol, and 2 mM L-Gln (initiation of differentiation induction, day 0). […] Three days later, the medium was exchanged with DMEM/F12 comprising various types of WNT inhibitors (C59, LGK-974, or ICG-001), 100 nM LDN193189, 10% KSR, 0.1 mM MEM non-essential amino acid, 0.1 mM 2-mercaptoethanol, and 2 mM L-Gln (day 6). Thereafter, the medium was exchanged with a fresh one of the same type every 3 days, and the culture was carried out for 18 days after the initiation of differentiation induction (day 18).
A half of the medium on day 18 was removed by aspiration, and thereafter, Neurobasal, to which B27, 2 mM L-Gln, and 10 units/ml penicillin and streptomycin had been added, was added in the same amount as the removed medium to the remaining medium. Likewise, a half amount of the medium was exchanged on day 21. On day 24, the cells were transferred on a petri dish, and thereafter, a half of the medium was exchanged every 3 or 4 days. On day 46, the obtained cells were immunostained using antibodies against CoupTF1 and Ctip2. […] From the aforementioned results, it was confirmed that nerve cells existing in the desired corticocerebral motor area can be induced even by utilizing the WNT inhibitor LGK-974 having a similar action to C59.

For `Cc1cc(-c2ccc(CC(=O)Nc3ccc(-c4cccnc4)cc3)cc2)ccn1` [C59], the “efficiency of inducing CoupTF1-negative Ctip2-positive cells” value was “not found a large difference”.
